Reference: US8258151B2, “3-aminoimidazo [1,2-A] pyridine derivatives as SGLT inhibitors” (Merck Patent GmbH, priority 2006, dated 2012)

How the values were obtained:
SGLT1 = target: T1, SGLT1 (Homo sapiens, UniProt P13866); experiment: SGLT1 activity measurement: 14C-AMG uptake in BHK cells transfected with SGLT1; format: cell-based; details: AMG 50 μM, 37° C., 90 min
T1 construct: expressed in transfected cells
T1 sequence (P13866 1-664): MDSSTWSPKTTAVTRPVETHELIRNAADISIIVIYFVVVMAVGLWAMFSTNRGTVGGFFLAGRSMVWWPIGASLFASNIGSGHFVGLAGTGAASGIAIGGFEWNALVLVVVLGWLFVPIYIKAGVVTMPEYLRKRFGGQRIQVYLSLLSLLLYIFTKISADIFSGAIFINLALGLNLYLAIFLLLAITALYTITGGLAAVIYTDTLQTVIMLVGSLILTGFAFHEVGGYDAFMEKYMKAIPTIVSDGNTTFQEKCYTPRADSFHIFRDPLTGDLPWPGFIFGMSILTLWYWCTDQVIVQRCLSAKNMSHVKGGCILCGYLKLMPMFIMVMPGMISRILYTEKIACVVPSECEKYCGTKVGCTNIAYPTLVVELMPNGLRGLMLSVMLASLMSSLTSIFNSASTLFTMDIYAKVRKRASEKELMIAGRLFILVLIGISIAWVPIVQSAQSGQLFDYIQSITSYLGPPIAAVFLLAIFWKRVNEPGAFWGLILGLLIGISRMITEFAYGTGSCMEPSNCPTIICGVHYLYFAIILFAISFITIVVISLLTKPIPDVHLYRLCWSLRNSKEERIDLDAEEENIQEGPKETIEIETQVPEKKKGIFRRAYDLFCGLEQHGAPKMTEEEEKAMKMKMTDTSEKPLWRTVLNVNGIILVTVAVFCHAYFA
Procedure, shortened: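 BHK21 cells stably transfected with human SLC5A1 were incubated with 14C-AMG (added solution at 50 μM) ± compound for 90 min at 37 °C. The buffer was 140 mM NaCl, HEPES/Tris, pH 7.4. Lysed-cell radioactivity was counted by scintillation, and non-specific uptake was measured in sodium-free sucrose buffer.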

SGLT2 = target: T2, SGLT2 (Homo sapiens, UniProt P31639); experiment: SGLT2 activity measurement: 14C-AMG uptake in BHK cells transfected with SGLT2; format: cell-based; details: AMG 2 mM, 37° C., 90 min
T2 construct: expressed in transfected cells
T2 sequence (P31639 1-672): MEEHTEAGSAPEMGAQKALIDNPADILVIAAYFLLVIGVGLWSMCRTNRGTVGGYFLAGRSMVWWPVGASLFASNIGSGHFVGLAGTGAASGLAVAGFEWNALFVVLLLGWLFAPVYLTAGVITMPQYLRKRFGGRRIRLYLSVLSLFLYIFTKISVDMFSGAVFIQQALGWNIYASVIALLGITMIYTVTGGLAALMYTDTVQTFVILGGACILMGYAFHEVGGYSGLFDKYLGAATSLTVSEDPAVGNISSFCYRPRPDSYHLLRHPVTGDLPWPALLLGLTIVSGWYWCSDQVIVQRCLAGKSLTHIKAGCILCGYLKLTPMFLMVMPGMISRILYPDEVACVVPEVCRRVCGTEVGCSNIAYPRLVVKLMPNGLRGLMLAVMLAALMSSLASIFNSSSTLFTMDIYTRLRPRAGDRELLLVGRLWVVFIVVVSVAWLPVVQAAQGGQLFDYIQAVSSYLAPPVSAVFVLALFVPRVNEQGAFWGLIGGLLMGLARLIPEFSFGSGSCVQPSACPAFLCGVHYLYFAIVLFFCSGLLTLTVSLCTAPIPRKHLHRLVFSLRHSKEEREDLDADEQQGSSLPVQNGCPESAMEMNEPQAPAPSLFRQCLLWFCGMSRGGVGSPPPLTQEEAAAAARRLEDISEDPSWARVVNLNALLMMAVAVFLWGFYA
Procedure, shortened: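 BHK21 cells stably expressing human SGLT2 took up 14C-AMG (added as 2 mM solution) ± compound for 90 min at 37 °C in Na+-containing HEPES/Tris buffer, pH 7.4. Uptake was measured by scintillation counting after lysis. Non-specific uptake was defined in sodium-free sucrose buffer.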

SMILES	IC50 (SGLT1)	IC50 (SGLT2)
Cc1cccc(C)c1Nc1c(-c2c(C)cc(OC3CCCCO3)cc2OCC(N)=O)nc2ccc(F)cn12 (stereo not drawn) [Compound A177, 2-[2-(Aminocarbonylmethoxy)-4-(tetra-hydropyran-2-yloxy)-6-methylphenyl]-3-(2,6-dimethylphenylamino)-6-fluoroimidazo[1,2-a]-pyridine]	> 10000 nM	10 to 1000 nM
Cc1cccc(C)c1Nc1c(-c2c(O)cccc2OCC(N)=O)nc2ccc(F)cn12 [Compound A175, 2-[2-(Aminocarbonylmethoxy)-6-hydroxyphenyl]-3-(2,6-dimethylphenylamino)-6-fluoroimidazo-[1,2-a]pyridine]	> 10000 nM	10 to 1000 nM
CCc1cc(OCCOC)cc(OCC(N)=O)c1-c1nc2ccc(F)cn2c1Nc1c(C)cccc1C [Compound A187, 2-[2-(Aminocarbonylmethoxy)-4-(2-methoxy-ethoxy)-6-ethylphenyl]-3-(2,6-dimethylphenyl-amino)-6-fluoroimidazo[1,2-a]pyridine]	> 10000 nM	10 to 1000 nM
NC(=O)COc1ccccc1-c1nc2ccccn2c1Nc1c(Cl)cccc1Cl [Compound A5, 2-[2-(Aminocarbonylmethoxy)phenyl]-3-(2,6-di-chlorophenylamino)imidazo[1,2-a]pyridine]	> 10000 nM	10 to 1000 nM
COc1cc(C)c(-c2nc3ccc(F)cn3c2Nc2c(F)cccc2F)c(OCC(N)=O)c1 [Compound A219, 2-[2-(Aminocarbonylmethoxy)-4-methoxy-6-methylphenyl]-3-(2,6-difluorophenylamino)-6-fluoroimidazo[1,2-a]pyridine]	1000 to 10000 nM	10 to 1000 nM
COCCOc1cc(C)c(-c2nc3ccc(F)cn3c2Nc2c(C)cccc2C)c(OCC(N)=O)c1 [Compound A184, 2-[2-(Aminocarbonylmethoxy)-4-(2-methoxy-ethoxy)-6-methylphenyl]-3-(2,6-dimethylphenyl-amino)-6-fluoroimidazo[1,2-a]pyridine]	> 10000 nM	10 to 1000 nM
COc1cc(C)c(-c2nc3cccc(C)n3c2Nc2c(C)cccc2C)c(OCC(N)=O)c1 [Compound A206, 2-[2-(Aminocarbonylmethoxy)-4-methoxy-6-methylphenyl]-3-(2,6-dimethylphenylamino)-5-methylimidazo[1,2-a]pyridine]	> 10000 nM	10 to 1000 nM
Cc1cccc(C)c1Nc1c(-c2ccccc2OCC(N)=O)nc2cccc(C)n12 [Compound A9, 2-[2-(Aminocarbonylmethoxy)phenyl]-3-(2,6-di-methylphenylamino)-5-methylimidazo[1,2-a]-pyridine]	> 10000 nM	10 to 1000 nM
COc1cc(OC)c(-c2nc3ccc(F)cn3c2Nc2c(C)cccc2C)c(OCC(N)=O)c1 [Compound A199, 2-[2-(Aminocarbonylmethoxy)-4-methoxy-6-methoxyphenyl]-3-(2,6-dimethylphenylamino)-6-fluoroimidazo[1,2-a]pyridine]	> 10000 nM	10 to 1000 nM
Cc1cccc2nc(-c3ccccc3OCC(N)=O)c(Nc3c(Cl)cccc3Cl)n12 [Compound A11, 2-[2-(Aminocarbonylmethoxy)phenyl]-3-(2,6-di-chlorophenylamino)-5-methylimidazo[1,2-a]-pyridine]	1000 to 10000 nM	10 to 1000 nM
CCc1cc(OCC(N)=O)cc(OCC(N)=O)c1-c1nc2ccc(F)cn2c1Nc1c(C)cccc1C [Compound A230, 2-[2-(Aminocarbonylmethoxy)-4-(amino-carbonylmethoxy)-6-ethylphenyl]-3-(2,6-dimethylphenylamino)-6-fluoroimidazo[1,2-a]-pyridine]	> 10000 nM	10 to 1000 nM
CCc1cc(OCC(O)CO)cc(OCC(N)=O)c1-c1nc2ccc(F)cn2c1Nc1c(C)cccc1C (stereo not drawn) [Compound A216, 2-[2-(Aminocarbonylmethoxy)-4-(2,3-dihydroxy-propoxy)-6-ethylphenyl]-3-(2,6-dimethylphenyl-amino)-6-fluoroimidazo[1,2-a]pyridine]	> 10000 nM	10 to 1000 nM
